From patent US20250249025A1, “DRUG DELIVERY CARRIER UTILIZING PROPERTY OF D-ALLOSE BEING UPTAKEN BY CANCER CELL, DRUG DELIVERY METHOD, AND COMPOSITION FOR TREATING RENAL CELL CARCINOMA” (NATIONAL UNIVERSITY CORPORATION KAGAWA UNIVERSITY, priority 2019, published 2025)

Experiments:
Assay type in all cases: cell-based
[1] = tested on: human bladder carcinoma cell line RT112; assay: Rare sugar uptake experiment, sugar content in disrupted cell suspension of RT112; conditions: RT112, 48 hours; for D-glucose content in cell: named sugar added to RPMI-1640 at 10 mM, HPLC after ABEE labeling
Protocol: (§1) An uptake amount of a rare sugar, which had been added to a medium, into carcinoma cells was analyzed using the cell lines of three types of cancers. As the rare sugar, four kinds, that is, D-allose, D-allulose (D-psicose), L-allulose (L-psicose), and allitol were used, while D-glucose and fructose were used as a monosaccharide which was not a rare sugar.
(§2) Cells of each of the cell lines were cultured in RPMI-1640 media and during culturing, six sugars were each added to the resulting media and cultured. After culturing, an amount of each sugar taken up into the cells was analyzed. The medium to which no sugar was added during culturing was used as a control.
(§3) Used were human bladder carcinoma cell lines (RT112, 253), and J82), human prostatic carcinoma cell lines (LNCa, Du145, and PC-3), and human renal cell carcinoma cell lines (ACHN, Caki-I, and Caki-II).
(§4) After cells were cultured in RPMI-1640 (2000 mg D-glucose/L) media, the above monosaccharides and rare sugars were added to the resulting media, respectively. Described specifically, they were following seven combinations: RPMI-1640 alone (control), RPMI-1640+D-glucose, RPMI-1640+L-allulose, RPMI-1640+D-allulose, RPMI-1640+D-fructose, RPMI-1640+D-allose, and RPMI-1640+D-allitol. The final concentration of the sugar in the medium was adjusted to 10 mM and no sugar was added in the control.
(§5) Five-ml portions of a 3.0×10^4 cells/ml cell suspension prepared using RPMI-1640 were seeded in dishes having a diameter of 6 cm (1.5×10^5 cells/dish) and cultured for 24 hours in the RPMI-1640 medium containing 2000 mg/l of D-glucose as a nutrient source. Twenty-four hours later, the media were changed to the culture solutions containing the monosaccharides and rare sugars described above in 2), respectively, followed by culturing for 48 hours.
(§6) After culturing for 48 hours, the attached human carcinoma cells were mechanically separated and collected in a Spitz tube together with the culture solution and floating cells. After the supernatant formed by centrifugation (4° C., 1200 rpm, and 5 minutes) was removed to obtain cell pellets alone, 5 ml of a phosphate buffer physiological saline (PBS) was added for the purpose of washing to obtain a cell suspension of the cell pellets. A gain, the resulting cell suspension was centrifuged at 4° C. and 1200 rpm for 5 minutes and the supernatant was removed. To the cell pellets after washing was added 1 ml of pure water to suspend them therein. Ultrasonic disruption (intensity: 40%, 30 seconds) was then performed and the monosaccharide in the disrupted cell suspension was labeled with ABEE, followed by analysis by HPLC. From the area thus obtained, the sugar content in the cells was determined using a calibration curve. With respect to the ketose, two peaks were found after labeling with ABEE so that the sugar content in the cells was determined from the calibration curves of both peaks.

[2] = tested on: human bladder carcinoma cell line 253J; assay: Rare sugar uptake experiment, sugar content in disrupted cell suspension of 253J; conditions: 253J, 48 hours; for D-glucose content in cell: named sugar added to RPMI-1640 at 10 mM, HPLC after ABEE labeling
Protocol: as §1, §2, §3, §4, §5, §6

[3] = tested on: human renal cell carcinoma cell line Caki-I; assay: Rare sugar uptake experiment, sugar content in disrupted cell suspension of Caki-I; conditions: Caki-I, 48 hours; for D-glucose content in cell: named sugar added to RPMI-1640 at 10 mM, HPLC after ABEE labeling
Protocol: as §1, §2, §3, §4, §5, §6

[4] = tested on: human bladder carcinoma cell line J82; assay: Rare sugar uptake experiment, sugar content in disrupted cell suspension of J82; conditions: J82, 48 hours; for D-glucose content in cell: named sugar added to RPMI-1640 at 10 mM, HPLC after ABEE labeling
Protocol: as §1, §2, §3, §4, §5, §6

[5] = tested on: human renal cell carcinoma cell line Caki-II; assay: Rare sugar uptake experiment, sugar content in disrupted cell suspension of Caki-II; conditions: Caki-II, 48 hours; for D-glucose content in cell: named sugar added to RPMI-1640 at 10 mM, HPLC after ABEE labeling
Protocol: as §1, §2, §3, §4, §5, §6

[6] = tested on: human prostate carcinoma cell line PC-3; assay: Rare sugar uptake experiment, sugar content in disrupted cell suspension of PC-3; conditions: PC-3, 48 hours; for D-glucose content in cell: named sugar added to RPMI-1640 at 10 mM, HPLC after ABEE labeling
Protocol: as §1, §2, §3, §4, §5, §6

[7] = tested on: human renal cell carcinoma cell line ACHN; assay: Rare sugar uptake experiment, sugar content in disrupted cell suspension of ACHN; conditions: ACHN, 48 hours; for D-glucose content in cell: named sugar added to RPMI-1640 at 10 mM, HPLC after ABEE labeling
Protocol: as §1, §2, §3, §4, §5, §6

[8] = tested on: human prostate carcinoma cell line Du145; assay: Rare sugar uptake experiment, sugar content in disrupted cell suspension of Du145; conditions: Du145, 48 hours; for D-glucose content in cell: named sugar added to RPMI-1640 at 10 mM, HPLC after ABEE labeling
Protocol: as §1, §2, §3, §4, §5, §6

[9] = tested on: human prostate carcinoma cell line LNCa; assay: Rare sugar uptake experiment, sugar content in disrupted cell suspension of LNCa; conditions: LNCa, 48 hours; for D-glucose content in cell: named sugar added to RPMI-1640 at 10 mM, HPLC after ABEE labeling
Protocol: as §1, §2, §3, §4, §5, §6

[10] = sugar added to RPMI-1640 at 10 mM, ketoses: range from two peaks

SMILES | D-glucose content in cell [1] [µg] | D-glucose content in cell [2] [µg] | D-glucose content in cell [3] [µg] | D-glucose content in cell [4] [µg] | D-glucose content in cell [5] [µg] | D-glucose content in cell [6] [µg] | D-glucose content in cell [7] [µg] | D-glucose content in cell [8] [µg] | D-glucose content in cell [9] [µg] | Content in cell of the added sugar [1, 10] [µg] | Content in cell of the added sugar [2, 10] [µg] | Content in cell of the added sugar [3, 10] [µg] | Content in cell of the added sugar [4, 10] [µg] | Content in cell of the added sugar [5, 10] [µg] | Content in cell of the added sugar [6, 10] [µg] | Content in cell of the added sugar [7, 10] [µg] | Content in cell of the added sugar [8, 10] [µg] | Content in cell of the added sugar [9, 10] [µg]
OC[C@@H](O)[C@@H](O)[C@@H](O)[C@@H](O)CO [allitol] | 3.6 | 0.5 | 2.4 | 2.4 | 4.3 | 2.1 | 1.8 | 4.5 | 9.2 |  |  |  |  |  |  |  |  | 
O=C(CO)[C@@H](O)[C@@H](O)[C@@H](O)CO [L-allulose] | 3.9 | 0.5 | 2.3 | 1.9 | 1.7 | 1.5 | 2.1 | 2.5 | 10.2 |  |  |  |  |  |  |  |  | 
O=C(CO)[C@@H](O)[C@H](O)[C@H](O)CO [D-fructose] | 4.4 | 3.3 | 2.5 | 2.7 | 3.6 | 2.7 | 2.1 | 4.2 | 4.1 | 12.7 to 15.7 | 0.0 | 16.7 to 20.7 | 11.1 to 15.0 | 20.4 to 21.3 | 16.5 to 20.1 | 16.8 to 19.0 | 12.9 to 17.0 | 0.0
O=C[C@H](O)[C@@H](O)[C@H](O)[C@H](O)CO [D-glucose] | 16.7 | 4.0 | 4.4 | 7.2 | 8.4 | 6.7 | 5.6 | 4.4 | 6.5 |  |  |  |  |  |  |  |  | 
O=C(CO)[C@H](O)[C@H](O)[C@H](O)CO [D-allulose] | 3.4 | 0.6 | 2.3 | 2.1 | 3.1 | 1.6 | 1.9 | 3.9 | 7.5 |  |  |  |  |  |  |  |  | 
